The values that follow come from patent US20130224239A1, “ALCOHOLIC EXTRACT OF FUNGI OF GENUS […] AND USE THEREOF” (KING SAUD UNIVERSITY, priority 2011, published 2013).

≈ marks a conversion by molar mass, not a printed value. Like-named read-outs stand apart in the source and are kept apart here.

Common to all, as to format: cell-based
Assay [1] has as its system Salmonella typhimuium (RCMB 0104). In words: Antimicrobial screening, disc diffusion. To be noted: Salmonella typhimuim; compounds isolated from Cunninghamella elegans. The procedure:
(§1) The alcoholic extracts obtained were used for testing their antimicrobial activity. Each extract (0.5 g) was dissolved in 10 ml water. Same concentrations for the successive extracts (using diethyl ether, chloroform, ethyl acetate and n-butanol) were also prepared.
(§2) The representatives of Gram negative bacteria, namely Salmonella typhimuium (RCMB 0104), Escherichia coli (RCMB 0103), Pseudomonas aeruginosa (RCMB 0102) and Gram positive bacteria, namely Bacillus subtilis (RCMB 0107), Staphylococcus aureus (RCMB 0106), Streptococcus pyogenes (RCMB 0109), unicellular fungi, namely Candida albicans (RCMB 5002) and filamentous fungi, namely Aspergillus fumigatus (RCMB 2003) and Penicllium expansum (RCMB 1006) were used as test organisms (RCMB: The Regional Center for Mycology and Biotechnology, Al-azhar University Nasser City, Cairo, Egypt).
(§3) For antimicrobial screening the well known disc diffusion and agar well diffusion methods were used, together with the determination of minimum inhibitory concentration (MIC), see Duguid et al., Microbial Infections, The English Language Book Society, Churchill Livingston, Edingburgh, London, 1978; vol. 1, page 110.
Disc diffusion method: The agar disc diffusion method is employed for the determination of antimicrobial activities of the extracts of the investigated fungal species. Sterilized paper discs (Whatman No. 1) ([…]) were separately soaked in the extracts and transferred onto the surface of growth media seeded with the test organism. After incubation period, following suitable conditions for the test organism, the diameter of the inhibition zone around the discs was measured in millimeters.
Each fungal species was grown on malt extract media at 28±2° C. for 14 days. The metabolites of the fungal species were screened for antimicrobial activity.

Another assay has as its system Staphylococcus aureus. The assay can be described thus: Minimum inhibitory concentration, agar well diffusion. To be noted: for MIC: read-out: Minimum inhibitory concentration.
From the text: as §3
Agar well diffusion method: On the other hand, the agar well diffusion method was employed for determination of the minimum inhibitory concentration (MIC). The test organisms were separately seeded in the agar medium. The wells (10 mm in diameter) were cut from the agar and […] (different concentrations) was transferred into them. After incubation period, following suitable conditions for the test organism, the diameter of the inhibition zone around the discs was measured in millimeters. The obtained result was the mean of three experiments.
The minimum inhibitory concentration (MIC) of Cunninghamella blakesleeana, C. elegans, C. homothallica and successive extracts and isolated compounds of Cunninghamella elegans against Staphylococcus aureus was determined.
Minimum inhibitory concentration (MIC): The lowest concentration of an antimicrobial agent that will inhibit a visible growth of a microorganism after overnight incubation.

The test system of assay [2] is Pseudomonas aeruginosa (RCMB 0102). In words: Antimicrobial screening, disc diffusion. The following applies: Pseudomonas aeurginosa; compounds isolated from Cunninghamella elegans. The procedure:
as §1, §2, §3
(§4) Disc diffusion method: The agar disc diffusion method is employed for the determination of antimicrobial activities of the extracts of the investigated fungal species. Sterilized paper discs (Whatman No. 1) ([…]) were separately soaked in the extracts and transferred onto the surface of growth media seeded with the test organism. After incubation period, following suitable conditions for the test organism, the diameter of the inhibition zone around the discs was measured in millimeters. The obtained result was the mean of three experiments.
(§5) Each fungal species was grown on malt extract media at 28±2° C. for 14 days. The metabolites of the fungal species were screened for antimicrobial activity. The inhibition zones around each disc were measured, in millimeter, and recorded (Tables 1).

In assay [3] the test system is Penicllium expansum (RCMB 1006). In words: Antimicrobial screening, disc diffusion. To be noted: Penicillium expansum; compounds isolated from Cunninghamella elegans. On the procedure: as §1, §2, §3, §4, §5
A general note: A growth-free zone around the sample is the usual read-out of agar diffusion tests.

Assay [4] has as its system Staphylococcus aureus (RCMB 0106). The assay can be described thus: Antimicrobial screening, disc diffusion. The following applies: compounds isolated from Cunninghamella elegans. On the procedure: as §1, §2, §3, §4, §5
Assay [5] has as its system Bacillus subtilis (RCMB 0107). In words: Antimicrobial screening, disc diffusion. To be noted: compounds isolated from Cunninghamella elegans. The procedure:
as §1, §2, §3, §4, §5

The test system of assay [6] is Candida albicans (RCMB 5002). The assay can be described thus: Antimicrobial screening, disc diffusion. To be noted: compounds isolated from Cunninghamella elegans. The procedure:
as §1, §2, §3, §4, §5

In assay [7] the test system is Streptococcus pyogenes (RCMB 0109). The assay can be described thus: Antimicrobial screening, disc diffusion. To be noted: compounds isolated from Cunninghamella elegans. On the procedure:
as §1, §2, §3, §4, §5

In assay [8] the test system is Escherichia coli (RCMB 0103). In words: Antimicrobial screening, disc diffusion. The following applies: compounds isolated from Cunninghamella elegans. The procedure: as §1, §2, §3, §4, §5
Assay [9] has as its system Aspergillus fumigatus (RCMB 2003). The assay can be described thus: Antimicrobial screening, disc diffusion. To be noted: compounds isolated from Cunninghamella elegans. On the procedure: as §1, §2, §3, §4, §5

Regarding `O=c1ccn([C@@H]2O[C@H](CO)[C@@H](O)[C@H]2O)c(=O)[nH]1` [Compound 5, pyrimidine-2,4-dion, 1-ribose], the “Diameter of inhibition zone” value was found to be 00.0 mm in assay [1]; 00.0 mm in [2]; 00.0 mm in [3]; 11.0 ± 0.1 mm in assay [4]; 00.0 mm in assay [5]; 00.0 mm in [6]. Besides, the “Diameter of inhibition zone” value in assay [7], in assay [8] and in [9] was 00.0 mm each time. The Minimum inhibitory concentration in the assay on Staphylococcus aureus (against Staphylococcus aureus) stood at 150 µg/mL (≈ 614 µM).

For `O=C(O)c1cc(O)c(O)c(O)c1` [Compound 7, 3,4,5-trihydroxy-benzoic acid], in the assay on Staphylococcus aureus (against Staphylococcus aureus), the MIC amounted to 130 µg/mL (≈ 764 µM). Moreover, the “Diameter of inhibition zone” value worked out at 00.0 mm in assay [2]; 00.0 mm in assay [3]; 05.0 ± 0.5 mm in assay [4]; 00.0 mm in [5]; 00.0 mm in [6]; 00.0 mm in assay [7]. Further, the “Diameter of inhibition zone” value in assay [8] and in assay [9] was 00.0 mm in each case.

As for `C=C(CC(=O)O)C(=O)OC` [Compound 8, 3-(methoxycarbonyl)-but-3-enoic acid], the “Diameter of inhibition zone” value in assay [1] was determined as 00.0 mm; in assay [2], 00.0 mm; in [3], 00.0 mm; in assay [4] it was 07.0 ± 0.5 mm; in assay [5], 00.0 mm; in [6], 00.0 mm. Also, the “Diameter of inhibition zone” value in assay [7], in [8] and in [9] was 00.0 mm each time. Further, the MIC in the assay on Staphylococcus aureus (against Staphylococcus aureus) was determined as 210 µg/mL (≈ 1460 µM).

As to `CN[C@H](CC(C)C)C(=O)N[C@H]1C(=O)N[C@@H](CC(N)=O)C(=O)N[C@H]2C(=O)N[C@H]3C(=O)N[C@H](C(=O)N[C@H](C(=O)O)c4cc(O)cc(O)c4-c4cc3ccc4O)[C@H](O)c3ccc(c(Cl)c3)Oc3cc2cc(c3O[C@@H]2O[C@H](CO)[C@@H](O)[C@H](O)[C@H]2O[C@H]2C[C@](C)(N)[C@H](O)[C@H](C)O2)Oc2ccc(cc2Cl)[C@H]1O` [Vancomycin, reference compound], in the assay with Staphylococcus aureus (Staphylococcus aureus), the MIC worked out at 0.75 µg/mL (≈ 0.518 µM).

In turn, Gentamicin [reference compound] came in with a Minimum inhibitory concentration with Staphylococcus aureus (against Staphylococcus aureus) of 0.35 µg/mL.
